Test results from US12421206B2, “Aryl-n-aryl derivatives for treating a RNA virus infection” (ABIVAX, priority 2018, dated 2025).

System: RSV A2
Assay: RSV inhibition (cytopathic effect inhibition) using Viral ToxGlo assay in HEp-2 cells
Format: cell-based
Conditions: human respiratory syncytial virus, RSV A2, MOI 0.5, HEp-2 cells, 72 h p.i.
Description: Protocol for Screening Antiviral Compounds for RSV Inhibition and Cytotoxicity Using Viral ToxGlo Assay
HEp-2 cells were maintained in Eagle's minimum essential medium (EMEM) with Earle's BSS adjusted to contain 2 mM L-glutamine, 10% fetal bovine serum, 100 U/ml penicillin and 100 μg/ml streptomycin. For the purposes of the screening assay they were grown to 90% confluency, trypsinized and recovered. The trypsin was neutralised with cell culture media and cells were centrifuged at 150×g for 5 minutes before discarding the supernatant and resuspending cell pellet in assay media (EMEM with Earle's BSS adjusted to contain 2 mM L-glutamine, 2% fetal bovine serum and 100 U/ml penicillin and 100 μg/ml streptomycin). The cells were seeded into white clear-bottomed cell culture plates at a density of 1.5×10^4 cells/well in 50 μl and 4×10^3 cells/well in 25 μl for 96 well plates and 384 well plates respectively. For the media/background control column assay media only was added. Cell plates were placed in a humid chamber and incubated overnight at 37° C./5% CO2. After overnight incubation cells were checked for confluency and healthy appearance.
Test articles were made up at 10× test concentration in a maximum DMSO concentration of 10% (final assay concentration maximal 1% DMSO) and added to the cell plates in volumes of 10 μl for 96 well plates and 5 μl for 384 well plates. For cell control and virus control wells the test article solvent only was added. Virus or assay media for cytotoxicity test wells and media/cell control wells was added immediately after test articles at an MOI of 0.5, 40 or 20 μl for 96 and 384 well plates respectively. Virus suspension was prepared by thawing RSV A2 frozen stocks and diluting to the required concentration of plaque forming units in assay media on ice.
Cell plates were further incubated inside a humid chamber for 72 h p.i at 37° C./5% CO2. After the incubation period cells were observed under the microscope to check for characteristic cytopathic effect in virus control wells and healthy cells in the cell control wells. After plates were adjusted to room temperature 20/40 μl Viral ToxGlo (Promega) was added to each well of the 384/96 well cell plates. Plates were incubated at room temperature, protected from light on a plate rocker for 20 minutes before measuring the luminescence on a spectrophotometer (Biotek Synergy HTX).
RSV inhibition was calculated as percentage of cytopathic effect inhibition relative to the virus control and cytotoxicity as percentage of cell survival relative to cell control wells. This allowed EC50 values to be calculated for each test article where a virus inhibition or cytotoxic dose response was identified.

| Compound | EC50 [nM] |
| --- | --- |
| O=C(NCCC1CCCCC1)c1cc(Nc2ccc(OCc3ccccn3)cc2C2CC2)ccn1 [Compound 117, N-(2-cyclohexylethyl)-4-({2-cyclopropyl-4-[(pyridin-2-yl)methoxy]phenyl}amino)pyridine-2-carboxamide] | 98 |
| CSc1cc(OCc2ccccc2)ccc1Nc1cccc(NC(=O)CCC2CCCCC2)c1 [Compound 94, N-(3-{[4-(benzyloxy)-2-(methylsulfanyl)phenyl]amino}phenyl)-3-cyclohexylpropanamide] | 7 |
| O=C(CCC1CCCCC1)Nc1cc(Nc2ccc(OCc3ccc(F)cc3)cc2C(F)(F)F)ccc1F [Compound 125, 3-cyclohexyl-N-[2-fluoro-5-({4-[(4-fluorophenyl)methoxy]-2-(trifluoromethyl)phenyl}amino)phenyl]propanamide] | 130 |
| c1ccc(COc2ccc(Nc3cncc(OCCCC4CCCCC4)c3)c(C3CC3)c2)nc1 [Compound 166, 5-(3-cyclohexylpropoxy)-N-{2-cyclopropyl-4-[(pyridin-2-yl)methoxy]phenyl}pyridin-3-amine] | 2490 |
| O=S(=O)(CCCC1CCCCC1)c1cccc(Nc2ccc(OCc3ccccc3)cc2C2CC2)c1 [Compound 142, 4-(benzyloxy)-N-[3-(3-cyclohexylpropanesulfonyl)phenyl]-2-cyclopropylaniline] | 370 |
| c1ccc(COc2ccc(Nc3cccc(-n4cc(CC5CCCCC5)nn4)c3)c(C3CC3)c2)nc1 [Compound 100, N-{3-[4-(cyclohexylmethyl)-1H-1,2,3-triazol-1-yl]phenyl}-2-cyclopropyl-4-[(pyridin-2-yl)methoxy]aniline] | 16 |
| COC(=O)C(NCCC1CCCCC1)c1cccc(Nc2ccc(OCc3ccccc3)cc2C2CC2)c1 (stereo not drawn) [Compound 138, methyl 2-(3-{[4-(benzyloxy)-2-cyclopropylphenyl]amino}phenyl)-2-[(2-cyclohexylethyl)amino]acetate] | 312 |
| C1=C(c2cc(OCc3ccccc3)ccc2Nc2cccc(OCCCC3CCCCC3)c2)CCOC1 [Compound 165, 4-(benzyloxy)-N-[3-(3-cyclohexylpropoxy)phenyl]-2-(3,6-dihydro-2H-pyran-4-yl)aniline] | 2360 |
| c1ccc(COc2ccc(Nc3cccc(OCCCC4CCCCC4)c3)c(C3CCOCC3)c2)cc1 [Compound 164, 4-(benzyloxy)-N-[3-(3-cyclohexylpropoxy)phenyl]-2-(oxan-4-yl)aniline] | 1320 |
| O=C(NCCC1CCCCC1)c1cccc(Nc2ccc(OCc3ccccn3)cc2C2CC2)c1 [Compound 76, N-(2-(cyclohexyl)ethyl)-3-((2-cyclopropyl-4-(pyridin-2-ylmethoxy)phenyl)amino)benzamide] | 14 |
| c1ccc(COc2ccc(Nc3cccc(-c4noc(CCC5CCCCC5)n4)c3)c(C3CC3)c2)nc1 [Compound 129, N-{3-[5-(2-cyclohexylethyl)-1,2,4-oxadiazol-3-yl]phenyl}-2-cyclopropyl-4-[(pyridin-2-yl)methoxy]aniline] | 175 |
| O=C(NCC1CCCCC1)c1ccccc1Nc1ccc(OCc2ccccc2)cc1C1CC1 [Compound 110, 2-{[4-(benzyloxy)-2-cyclopropylphenyl]amino}-N-(cyclohexylmethyl)benzamide] | 59 |
| O=C(NCCC1CCCCC1)c1cccc(Nc2ccc(OCc3ccccn3)cc2C2CC2)n1 [Compound 86, N-(2-cyclohexylethyl)-6-((2-cyclopropyl-4-(pyridin-2-ylmethoxy)phenyl)amino)picolinamide] | 567 |
| O=S(=O)(CCCC1CCCCC1)c1ccccc1Nc1ccc(OCc2ccccc2)cc1C1CC1 [Compound 122, 4-(benzyloxy)-N-[2-(3-cyclohexylpropanesulfonyl)phenyl]-2-cyclopropylaniline] | 116 |
| O=C(NCCC1CCCC1)c1cccc(Nc2ccc(OCc3ccccc3)cc2C(F)(F)F)c1 [Compound 104, 3-{[4-(benzyloxy)-2-(trifluoromethyl)phenyl]amino}-N-(2-cyclopentylethyl)benzamide] | 29 |
| CN(c1cccc(C(=O)NCCC2CCCCC2)c1)c1ccc(OCc2ccccn2)cc1C1CC1 [Compound 111, N-(2-cyclohexylethyl)-3-({2-cyclopropyl-4-[(pyridin-2-yl)methoxy]phenyl}(methyl)amino)benzamide] | 62 |
| Cc1c(NC(=O)C2(C#N)CC2)cccc1Nc1ccc(OCc2ccccn2)cc1C1CC1 [Compound 102, 1-cyano-N-[3-({2-cyclopropyl-4-[(pyridin-2-yl)methoxy]phenyl}amino)-2-methylphenyl]cyclopropane-1-carboxamide] | 22 |

| Compound | EC50 [nM] |
| --- | --- |
| Cc1cc(OCc2ncccn2)ccc1Nc1cccc(OCCCC2CCCCC2)c1 [Compound 152, N-[3-(3-cyclohexylpropoxy)phenyl]-2-methyl-4-[(pyrimidin-2-yl)methoxy]aniline] | 802 |
| CC(C)(C)c1cc(OCc2ccccc2)ccc1Nc1ccccc1C(=O)NCCC1CCCCC1 [Compound 101, 2-{[4-(benzyloxy)-2-tert-butylphenyl]amino}-N-(2-cyclohexylethyl)benzamide] | 21 |
| O=C(CCC1CCCCC1)Nc1cc(Nc2ccc(OCc3ccccc3)cc2C(F)(F)F)ccc1F [Compound 116, N-(5-{[4-(benzyloxy)-2-(trifluoromethyl)phenyl]amino}-2-fluorophenyl)-3-cyclohexylpropanamide] | 93 |
| CC(C)CCNC(=O)c1ccccc1Nc1ccc(OCc2ccccn2)cc1C1CC1 [Compound 123, 2-({2-cyclopropyl-4-[(pyridin-2-yl)methoxy]phenyl}amino)-N-(3-methylbutyl)benzamide] | 120 |
| O=C(NCCC(F)(F)F)c1ccccc1Nc1ccc(OCc2ccccn2)cc1C1CC1 [Compound 120, 2-({2-cyclopropyl-4-[(pyridin-2-yl)methoxy]phenyl}amino)-N-(3,3,3-trifluoropropyl)benzamide] | 110 |
| c1ccc(COc2ccc(Nc3cccc(OCCCC4CCCCC4)c3)c(N3CCOCC3)c2)cc1 [Compound 114, 4-(benzyloxy)-N-[3-(3-cyclohexylpropoxy)phenyl]-2-(morpholin-4-yl)aniline] | 71 |
| CC(C)CCc1cn(-c2cccc(Nc3ccc(OCc4ccccn4)cc3C3CC3)c2)nn1 [Compound 112, 2-cyclopropyl-N-{3-[4-(3-methylbutyl)-1H-1,2,3-triazol-1-yl]phenyl}-4-[(pyridin-2-yl)methoxy]aniline] | 67 |
| OCC(O)(CCC1CCCCC1)c1cccc(Nc2ccc(OCc3ccccc3)cc2C2CC2)c1 (stereo not drawn) [Compound 155, 2-(3-{[4-(benzyloxy)-2-cyclopropylphenyl]amino}phenyl)-4-cyclohexylbutane-1,2-diol] | 1030 |
| O=C(O)C(NCCC1CCCCC1)c1cccc(Nc2ccc(OCc3ccccc3)cc2C2CC2)c1 (stereo not drawn) [Compound 135, 2-(3-{[4-(benzyloxy)-2-cyclopropylphenyl]amino}phenyl)-2-[(2-cyclohexylethyl)amino]aceticacid] | 292 |
| O=C(CCC1CCCCC1)Nc1cccc(Nc2ccc(OCc3ccccn3)cc2C2CC2)c1 [Compound 80, (3-(cyclohexyl)propanamide), N-[3-([2-cyclopropyl-4-(pyridin-2-ylmethoxy)phenyl]amino)phenyl]-] | 21 |
| CC(C)(C)c1cc(OCc2ccccc2)ccc1Nc1cccc(NC(=O)CCC2CCCCC2)c1 [Compound 91, N-(3-{[4-(benzyloxy)-2-tert-butylphenyl]amino}phenyl)-3-cyclohexylpropanamide] | 2 |
| NC(=O)c1cccc(Nc2ccc(OCc3ccccn3)cc2C2CC2)c1 [Compound 84, 3-((2-cyclopropyl-4-(pyridin-2-ylmethoxy)phenyl)amino)benzamide] | 637 |
| CC(C)CCc1nc(-c2cccc(Nc3ccc(OCc4ccccn4)cc3C3CC3)c2)no1 [Compound 127, 2-cyclopropyl-N-{3-[5-(3-methylbutyl)-1,2,4-oxadiazol-3-yl]phenyl}-4-[(pyridin-2-yl)methoxy]aniline] | 148 |
| O=S(=O)(NCCC1CCCCC1)c1cccc(Nc2ccc(OCc3ccccc3)cc2C(F)(F)F)c1 [Compound 124, 3-{[4-(benzyloxy)-2-(trifluoromethyl)phenyl]amino}-N-(2-cyclohexylethyl)benzene-1-sulfonamide] | 126 |
| c1ccc(COc2ccc(Nc3cccc(-c4nnc(CCC5CCCCC5)o4)c3)c(C3CC3)c2)nc1 [Compound 130, N-{3-[5-(2-cyclohexylethyl)-1,3,4-oxadiazol-2-yl]phenyl}-2-cyclopropyl-4-[(pyridin-2-yl)methoxy]aniline] | 198 |
| c1ccc(COc2ccc(Nc3cccc(NCCCC4CCCCC4)c3)c(C3CC3)c2)cc1 [Compound 95, N1-[4-(benzyloxy)-2-cyclopropylphenyl]-N3-(3-cyclohexylpropyl)benzene-1,3-diamine] | 8 |
